A short description of data set [1]: Peptide stability in human serum. In kind it is in vitro ADME. The note with it: peptide 100 µM, 37 °C, aliquots 0 min to 48 h, MeOH protein precipitation, % intact peptide by UHPLC-UV, confirmed with mass spectrometry. The procedure:
Peptide stability in human serum
Peptides were dissolved in human serum at a final concentration of 100 µM and then incubated at 37 °C. Aliquots of 50 µL were taken at different times (0 min, 15 min, 30 min, 1 h, 2 h, 4 h, 6 h, 24 h and 48 h) and flash frozen with acetone/solid CO 2. Samples were treated with 200 µL of MeOH to precipitate serum proteins. Samples for U HPLC analysis were centrifuged and filtered through a 0.22 µm filter before injection. Aliquots were analysed with UHPLC-UV (flow = 0.61 mL/min; gradient 5 -95% MeCN (0.036% TFA) in water (0.045% TFA) in 2 minutes). The amount of peptide remaining was calculated by comparing the area under the curve of the several samples. […]

The target of the next data set is HeLa cells (TfR1+) (Homo sapiens, UniProt P02786). Description: Cell binding assay of sCy5-labelled peptides to HeLa cells by flow cytometry. Type of data set: cell-based. The note with it: 5 to 600 nM, 4 °C, 1 hour, geometric mean vs concentration. The procedure:
HeLa cells were cultured in DMEM media (1000 mg/L glucose) supplemented with 10% fetal bovine serum (FBS), 1% of 2 mM L -glutamine and 1% antibiotics (100 units/mL of penicillin and 100 µg/mL of streptomycin). Cells were expanded at 80% confluence and grown at 37°C with 5% CO2. All work performed with human cells follow the ethical principles and EU […]
Cell transfection of HeLa cells to express higher levels of TfR1
In a 96-well plate, 10,000 HeLa cells per well were seeded and left to grow for 24 h. A mixture of Lipofectamine 3000 (0.1 µL/well, Lipofectamine™ 3000 Transfection Reagent, ThermoFisher Scientific ), P3000 Reagent (0.2 µL/well) and the DNA pTfR-mNeonGreen (Plasmid #129608, Addgene) (100 ng/well ) in Opti-MEM medium was prepared. The mixture was incubated for 15 mi n, added to the cells, and incubated for 48 h.
48-hour post-transfection, 50 μl of the sulfo-Cy5-labelled peptides were added to each well at the appropriate concentration (from 5 to 600 nM) and incubated at 4°C for 1 hour. Cells were washed three times with 100 μL of PBS, trypsinized with 25 μl of trypsin for 5 min at 37°C and, then 75 μL of supplemented medium with formalin (33% v/v) was added. Cells were detached by repeated pipetting and analysed using an Agilent NovoCyteflow cytometer (Agilent). sCy5 was analysed at 640 nm while mNeon-Green at 488 nm. Data was analysed by plotting the geometric mean vs the concentration of the peptide. […]

Data set [2] concerns human brain endothelial cells monolayer (BBB model). Description: Permeability assay in the in vitro BBB cellular model (human brain-like endothelial cells on Transwell). In kind it is in vitro ADME. The following applies: human cell-based BBB model. As for the experimental part:
48-hour post-transfection, 50 μl of the sulfo-Cy5-labelled peptides were added to each well at the appropriate concentration (from 5 to 600 nM) and incubated at 4°C for 1 hour. Cells were washed three times with 100 μL of PBS, trypsinized with 25 μl of trypsin for 5 min at 37°C and, then 75 μL of supplemented medium with formalin (33% v/v) was added. Cells were detached by repeated pipetting and analysed using an Agilent NovoCyteflow cytometer (Agilent). sCy5 was analysed at 640 nm while mNeon-Green at 488 nm. Data was analysed by plotting the geometric mean vs the concentration of the peptide.
Permeability assays in the in vitro BBB cellular model […]
the compound in Ringer HEPES was added to the donor compartment and 1500 µL of Ringer HEPES was introduced into the acceptor compartment. The plates were incubated for 2 h at 37 °C, and the solutions from both compartments were recovered and analysed. The samples were evaluated in triplicates. The amount of protein conjugates was quantified by fluorescence with Fluorescence Spectrophotometer F2500 HITACHI. […] The voltage for the detector was 700 V. Apparent permeability was calculated with the following formula: […]

The target of data set [3] is T1, human Transferrin Receptor (Homo sapiens, UniProt P02786).
T1 construct: purchased Acro Biosystems TFR-H82E5
As to the kind of experiment: Biolayer interferometry with immobilized extracellular domain of the receptor. The following applies: biotinylated hTfR on streptavidin biosensors, Octet R2, 25 °C, 10 mM HEPES pH 7.4, 150 mM NaCl, 0.05 % Tween-20, 1 mg/mL BSA; peptide 11.1, 33.3, 100 µM; 1:1 binding model; read-out: KD, binding to immobilized human TfR. The procedure: Biophysical characterization
Binding assays were performed on an Octet R2 (Sartorious) using streptavidin-coated biosensors (SA biosensors, 18-5019). Biosensors were equilibrated for at least 10 min in binding buffer (10 mM HEPES pH 7.4, 150 mM NaCl, 0.05 % Tween-20, 1 mg/mL BSA).
Experiments were designed and executed from the Octet BLI Discovery 13.0 software. The biotinylated human Transferrin Receptor (TFR-H82E5, Acro Biosystems) was immobilized onto the biosensor by dipping the sensors into a solution of 1 µg/mL hTfR for 500 s, followed by dipping the sensor into a fresh solution of binding buffer to stablish a baseline for 200 s.
Titrations were executed at 25 °C while rotating at 1000 rpm. In the association phase, the sensors were dipped into a solution containing the peptides at several concentrations in binding buffer for 150 s. After reaching equilibrium, the biosensors were dipped into fresh binding solution to monitor the dissociation kinetics for 200 s. Kinetic data were collected and processed using a 1:1 binding model to obtain the affinity constants using the Octet Analysis […]
Unpaired two-tailed student t tests were applied to evaluate the significant difference or p values between data sets using Prism 6.0c software.
1. C. Heinis, T. Rutherford, S. Freund and G. Winter, Nat Chem Biol, 2009, 5, 502–507.
2. […]
(In general: BLI is a label-free optical method that tracks binding on a fibre tip over time.)

The term half-life denotes the time needed for the level to fall by half in the phase considered. A high value points to slow loss. In general, Kd refers to the equilibrium constant for the complex coming apart.

Starred links: 1 amine or outer side, 2 acyl side, 3 side chain; linkers in the order of their positions; H or OH if unused. Positions of bridges follow the written chain, without caps; N, C: chain ends. Residues, ends and D or L forms follow the SMILES beside them. TBMB = c1c(C[*:1])cc(C[*:3])cc1C[*:2] A value given as a limit tells only on which side of the number the result lay.

HeLa cells (TfR1+), sequence (P02786 whole entry): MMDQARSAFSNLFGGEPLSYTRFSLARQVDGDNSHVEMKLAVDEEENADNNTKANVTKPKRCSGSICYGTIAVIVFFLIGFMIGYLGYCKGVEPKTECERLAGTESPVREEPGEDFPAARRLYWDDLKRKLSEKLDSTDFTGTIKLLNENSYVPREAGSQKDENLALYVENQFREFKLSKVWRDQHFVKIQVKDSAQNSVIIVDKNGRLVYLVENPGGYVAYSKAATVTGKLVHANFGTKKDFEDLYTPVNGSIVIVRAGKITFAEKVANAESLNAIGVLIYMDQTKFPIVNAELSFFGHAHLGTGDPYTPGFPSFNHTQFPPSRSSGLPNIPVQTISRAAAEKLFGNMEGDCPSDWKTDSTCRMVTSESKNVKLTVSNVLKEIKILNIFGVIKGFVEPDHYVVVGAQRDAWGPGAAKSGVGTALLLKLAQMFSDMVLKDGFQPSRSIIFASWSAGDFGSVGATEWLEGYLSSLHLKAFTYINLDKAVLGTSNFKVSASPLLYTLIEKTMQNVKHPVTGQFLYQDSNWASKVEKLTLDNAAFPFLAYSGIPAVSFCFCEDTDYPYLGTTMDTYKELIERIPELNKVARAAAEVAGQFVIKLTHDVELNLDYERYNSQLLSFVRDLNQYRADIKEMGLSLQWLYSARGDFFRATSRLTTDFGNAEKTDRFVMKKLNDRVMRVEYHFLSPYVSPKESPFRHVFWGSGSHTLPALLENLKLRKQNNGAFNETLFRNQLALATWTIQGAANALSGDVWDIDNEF
T1 sequence (P02786 89-760 limits assumed): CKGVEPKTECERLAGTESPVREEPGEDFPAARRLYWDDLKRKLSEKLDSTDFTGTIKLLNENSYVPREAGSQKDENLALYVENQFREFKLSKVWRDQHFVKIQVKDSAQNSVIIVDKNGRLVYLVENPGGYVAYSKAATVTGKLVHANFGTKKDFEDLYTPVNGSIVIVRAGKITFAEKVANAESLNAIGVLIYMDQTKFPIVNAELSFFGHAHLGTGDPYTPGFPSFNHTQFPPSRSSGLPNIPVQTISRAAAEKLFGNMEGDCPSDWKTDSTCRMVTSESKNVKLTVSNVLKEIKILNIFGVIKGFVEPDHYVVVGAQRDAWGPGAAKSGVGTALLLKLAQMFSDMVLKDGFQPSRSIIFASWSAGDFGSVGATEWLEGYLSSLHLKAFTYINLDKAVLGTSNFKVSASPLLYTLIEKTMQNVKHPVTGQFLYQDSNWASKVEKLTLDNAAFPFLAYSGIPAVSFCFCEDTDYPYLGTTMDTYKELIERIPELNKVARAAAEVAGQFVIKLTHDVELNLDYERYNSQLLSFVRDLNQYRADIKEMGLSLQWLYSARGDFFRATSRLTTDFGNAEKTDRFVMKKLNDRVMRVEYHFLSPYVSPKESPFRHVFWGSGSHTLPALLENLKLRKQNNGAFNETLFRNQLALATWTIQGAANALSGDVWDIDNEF

On to `CC(C)[C@@H]1NC(=O)[C@@H](N)CSCc2cc3cc(c2)CSC[C@H](NC(=O)[C@H](CC(=O)O)NC(=O)[C@H](Cc2c[nH]c4ccccc24)NC(=O)[C@H](Cc2c[nH]cn2)NC1=O)C(=O)N[C@@H](CCCNC(=N)N)C(=O)N[C@@H](CCC(N)=O)C(=O)N[C@@H](Cc1c[nH]c2ccccc12)C(=O)N[C@@H](Cc1c[nH]c2ccccc12)C(=O)N[C@@H](CCC(N)=O)C(=O)N1CCC[C@H]1C(=O)N[C@@H](CO)C(=O)N[C@H](C(N)=O)CSC3` [BrainBike-1] (H-CVHWDCRQWWQPSC-NH2; linker 1-6-14 via TBMB), for which, in data set [1], the half-life at 100 µM was 7.7 ± 1.9 h. The “App. Kd, association to HeLa cells (TfR1+)” value (from here on “App. Kd, association”) on HeLa cells (TfR1+) is reported as > 400 nM.
In data set [1], `CC(C)[C@@H]1NC(=O)[C@@H](N)CSCc2cc3cc(c2)CSC[C@H](NC(=O)[C@H](Cc2c[nH]c4ccccc24)NC(=O)[C@H](CCC(N)=O)NC(=O)[C@H](CCCNC(=N)N)NC(=O)[C@H](Cc2ccccc2)NC(=O)[C@H](CC(=O)O)NC(=O)[C@H](Cc2c[nH]c4ccccc24)NC(=O)[C@H](Cc2c[nH]cn2)NC1=O)C(=O)N[C@@H](CCC(N)=O)C(=O)N1CCC[C@H]1C(=O)N[C@@H](CO)C(=O)N[C@H](C(N)=O)CSC3` [BrainBike-2] (H-CVHWDFRQWCQPSC-NH2; linker 1-10-14 via TBMB) had a half-life at 100 µM of 3.5 ± 0.3 h. Also, the “App. Kd, association” value at HeLa cells (TfR1+) amounted to 120 ± 15 nM.
Compound `CC(C)[C@@H]1NC(=O)[C@@H](N)CSCc2cc3cc(c2)CSC[C@H](NC(=O)[C@H](CCCNC(=N)N)NC(=O)[C@H](Cc2ccccc2)NC(=O)[C@H](CC(=O)O)NC(=O)[C@H](Cc2c[nH]c4ccccc24)NC(=O)[C@H](Cc2c[nH]cn2)NC1=O)C(=O)N[C@@H](CCC(N)=O)C(=O)N[C@@H](Cc1c[nH]c2ccccc12)C(=O)N[C@@H](Cc1c[nH]c2ccccc12)C(=O)N[C@@H](CCC(N)=O)C(=O)N1CCC[C@H]1C(=O)N[C@@H](CO)C(=O)N[C@H](C(N)=O)CSC3` [BrainBike-3] (H-CVHWDFRCQWWQPSC-NH2; linker 1-8-15 via TBMB) showed a half-life at 100 µM in data set [1] of 4.8 ± 0.6 h. The “App. Kd, association” value at HeLa cells (TfR1+) was found to be 250 ± 5 nM.
For the compound `CC(C)[C@@H]1NC(=O)[C@@H](N)CSCc2cc3cc(c2)CSC[C@H](NC(=O)[C@H](CC(=O)O)NC(=O)[C@H](Cc2c[nH]c4ccccc24)NC(=O)[C@H](Cc2c[nH]cn2)NC1=O)C(=O)N[C@@H](CCCNC(=N)N)C(=O)N[C@@H](CCC(N)=O)C(=O)N[C@@H](Cc1c[nH]c2ccccc12)C(=O)N[C@H](C(N)=O)CSC3` [BrainBike-4] (H-CVHWDCRQWC-NH2; linker 1-6-10 via TBMB), the half-life at 100 µM in data set [1] was 5.5 ± 2.5 h. Moreover, the “App. Kd, association” value on HeLa cells (TfR1+) is “roughly 40 nM”; on HeLa cells (TfR1+) (listed as BB4) it was 37 ± 2 nM. Further, the “Fold increase in the transport of GFP on conjugation to the shuttle” value in data set [2] (GFP conjugate vs GFP) was 4 fold. In addition, the “Fold increase in the transport of the scFv on conjugation to the shuttle” value in data set [2] (sCy5-labelled scFv conjugate vs scFv) is given as 5 fold.
For “H-GVHWDFRQWWQPS-NH2 [Y1, reference compound]”, in data set [1], the half-life at 100 µM was 1.8 ± 0.5 h. For the same compound, the “App. Kd, association” value at HeLa cells (TfR1+) was 270 ± 5 nM. In data set [3], the equilibrium dissociation constant (Kd) was > 100000 nM.

The values are drawn from PMC10763564, “BrainBike peptidomimetic enables efficient transport of proteins across brain endothelium” (RSC Chemical Biology, 2023).
